Source: US11266642B2, “Small molecule inhibitors of HLA-DR3 binding for treating autoimmune thyroiditis” (ICAHN SCHOOL OF MEDICINE AT MOUNT SINAI, priority 2015, dated 2022)

Tests used:
HLA-DRβ1-Arg74 = molecular target: T1, HLA-DRβ1-Arg74 (Homo sapiens, UniProt P01903+P01911, A100K/A102G/A103R/A169T/F55Y/I96L/K41T/L162R/M171V/P40S/Q125H/Q178H/Q39Y/R42S/S66N/T106N/W38E/Y61H); test: In Vitro Arg74 Blocking Test (DELFIA immunoassay, APO peptide binding); details: 10 μM biotinylated APO; 48 h at 37° C.; serial dilution 0.2 to 0.0125 mM; read-out: approximate IC50, inhibition of APO binding to HLA-DRβ1-Arg74
T1 construct: extracellular portion of the DRB1*0301 β chain fused to the coiled coil region; coiled coil region of the basic leucine zipper domain of JunB; TEV protease cutting site (internal)
T1 sequence (P01903 26-216 limits assumed, other chains not shown): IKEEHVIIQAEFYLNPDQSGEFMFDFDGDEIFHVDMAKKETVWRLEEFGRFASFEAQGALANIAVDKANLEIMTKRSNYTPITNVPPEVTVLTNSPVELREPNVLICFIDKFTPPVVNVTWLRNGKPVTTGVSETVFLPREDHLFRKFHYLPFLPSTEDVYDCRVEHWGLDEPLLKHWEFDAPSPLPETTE
From the text: HLA-DRβ1-Arg74 protein (containing arginine at position 74 on the β chain) was produced using the baculovirus system. We designed 2 constructs for both the α and β chains of HLA-DR. The β-chain construct contained the extracellular portion of the DRB1*0301 β chain fused to the coiled coil region of the basic Leucine zipper domain of JunB, and the α chain construct contained the extracellular portion of the DR α chain fused to the coiled coil region to the basic Leucine zipper domain of Fos. A TEV protease cutting site was introduced in each chain to allow removal of the dimerization motif. The JunB and Fos dimerization motifs allowed the protein to dimerize and form the final HLA-DRβ1-Arg74 protein. […]
Test compounds were dissolved in 100% DMSO and tested for their ability to bind to the HLA-DRβ1-Arg74 pocket and block it from binding the peptide using an immunoassay we developed for this purpose, which will be referred to as the “In Vitro Arg74 Blocking Test”. […] Time-resolved fluorescence was measured using the BMG reader (BMG Labtech, Cary, N.C.). […] Percent inhibition was calculated by the following formula: 100−100×[HLA-DRβ1-Arg74-APO-small molecule/HLA-DRβ1-Arg74-APO (no small molecule)])
To gauge the potency of the small molecules we determined the percent inhibition at decreasing concentrations of test molecules. […]

[1] = tested on: T-cells of hTg immunized mice; test: CFSE T-cell proliferation of splenocytes from hTg immunized NOD-DR3 mice, compound added ex vivo; type: cell-based, mouse; details: final concentration 0.001 mM
Protocol: Female NOD-DR3 mice, 4-6 weeks old, were injected subcutaneously with human thyroglobulin (hTg) (Cell Sciences, Canton, Mass.) in complete Freund adjuvant (CFA) (Sigma) to induce EAT. Mice were immunized with hTg on day 0 and boosted on day 7; mice were sacrificed on day 21. For some mice, PC61 (anti-CD25) antibody (ATCC) at 7.5 mg/mL was injected i.p. on day (−4) and day 3 to deplete T regulatory (CD25+) cells and augment the autoimmune response to hTg.
Spleen and draining lymph nodes were collected from mice upon sacrifice. The spleens and draining lymph nodes were harvested in complete RPMI (Corning) supplemented with 10% FBS (Sigma-Aldrich,) and 1 mM sodium pyruvate (Sigma-Aldrich). They were cut and pressed in circular motion using a plunger from a 10 mL syringe. The suspension was filtered through a 100 μm cell strainer twice and centrifuged at 200×g for 10 minutes. The supernatant was discarded. […] The pellet was resuspended in RPMI and the cells were counted and plated. […]
The CFSE-labeled cells were plated at 2×10^5 cells per well in 100 μL of medium (RPMI/10% FBS). […] The results were analyzed using Flowjo (Tree Star, Ashland, Oreg.). The stimulation index was calculated by using the following formula: Stimulation index=[% proliferating lymphocytes (hTg, peptide or mitogen-treated)]/[% proliferating lymphocytes (medium-treated)]. […]

COc1ccc2cc1Oc1ccc(cc1)C[C@H]1c3c(cc4c(c3Oc3cc5c(cc3OC)CCN(C)[C@@H]5C2)OCO4)CCN1C [Compound Ia, cepharanthine]
IC50 (HLA-DRβ1-Arg74): ~80 µM | activation of T-cells of hTg immunized mice by Tg.2098 ([1]; Tg.2098 20 μg/ml, p=0.0079): significantly blocked | activation of T-cells of hTg immunized mice by hTg ([1]; hTg 40 μg/mL, p=0.0005): significantly blocked
